A word on the viscosity: it is the resistance of a fluid to flow.

A short description of this data set: xn = mol fraction of the nth substance listed. The settings on record: 100 kPa.

The compound `OC[C@@H](O)[C@@H](O)[C@H](O)[C@@H](O)CO` + CC(=O)[O-].CC[n+]1ccn(C)c1 had a viscosity (303.15 K, x1 = 0.0941) of 307 mPa·s; a viscosity (303.15 K, x1 = 0.483) of 1491.9 mPa·s; a viscosity (313.15 K, x1 = 0.0941) of 155 mPa·s; a viscosity (313.15 K, x1 = 0.1894) of 143.2 mPa·s; a viscosity (313.15 K, x1 = 0.483) of 572 mPa·s; a viscosity (313.15 K, x1 = 0.5836) of 816 mPa·s. For the same compound, the viscosity turned out to be 88 mPa·s (323.15 K, x1 = 0.0941); 80.7 mPa·s (323.15 K, x1 = 0.1894); 292 mPa·s (323.15 K, x1 = 0.2859); 257 mPa·s (323.15 K, x1 = 0.483); 348 mPa·s (323.15 K, x1 = 0.5836); 54.4 mPa·s (333.15 K, x1 = 0.0941). In addition, the viscosity reads like this: (333.15 K, x1 = 0.1894) 49.5 mPa·s; (333.15 K, x1 = 0.2859) 153 mPa·s; (333.15 K, x1 = 0.483) 130.5 mPa·s; (333.15 K, x1 = 0.5836) 170.6 mPa·s.

Consider `CC(=O)[O-].CC[n+]1ccn(C)c1` + OC[C@H](O)[C@@H](O)[C@H](O)[C@H](O)CO, for which the viscosity is 89.4 mPa·s (303.15 K, x2 = 0); 34.6 mPa·s (323.15 K, x2 = 0); 23.8 mPa·s (333.15 K, x2 = 0).

(Values after a compilation of properties of binary mixtures (doi:10.1016/j.fluid.2019.06.006).)
